“Also recorded” adds a separate entry of the source. Where two headings read alike, the source gives them in different places.
Columns and labels:
[1] = Peak plasma levels (Cmax) of compounds and metabolites on day 14 by UHPLC-MS/MS; assay type: in vivo, human; conditions: for Cmax: male, human, plasma, 2 weeks, read-out: UA plasma level, median (Cmax day 14)
Protocol: The compounds and their metabolites were measured using a UHPLC-MS/MS system on a Hybrid quadrupole-Orbitrap mass spectrometer (Q Exactive, Thermo Scientific, Waltham, MA, USA) hyphenated with a Thermo Scientific Vanquish Flex ultrahigh-pressure liquid chromatography (UHPLC) system via an electrospray ionization source. For the parallel reaction monitoring (PRM) scan, the resolution, automatic gain control (AGC) target, and maximum injection time (IT) were set at 17500, 2e5, and 100 ms, respectively. The NCE values for each metabolite were individually set, and the details are provided in Supplemental Table 1. The All-Ion Fragmentation (AIF) scan consisted of a scan range of m/z 100–750 with an NCE of 10. The resolution, AGC target, and maximum IT for the AIF scan were set at […], and 200 ms, respectively. More details regarding the preparation and calibration are provided in the Supplementary Methods section.

healthy men [2] = assay: Safety laboratory values, baseline vs end of two-week study; assay type: in vivo, human
Source text: Safety was compared to evaluate the number, frequency, duration, and relationship of toxicity events to CURC and UA, as defined by the Common Terminology Criteria for Adverse Events (CTCAE) v. […] The secondary outcomes included the measured plasma levels of UA, CURC, and selected metabolites. We also investigated the impact on the microbiome in a paired analysis for changes and the overall theme of imputed bacterial function.
Demographics between groups were compared using Fisher's exact test for categorical variables and Student's t-test for continuous variables. Laboratory safety values were analyzed using a paired t-test for differences, with significance set at p < 0.05. ANOVA was used to compare the plasma levels of UA, CURC, and CURC metabolites. Least significant difference (LSD) was used as the post-hoc analysis test to compare values between groups.
Laboratory analysis was performed at baseline and at the end of the two-week study. We then subtracted the values (week 2: baseline) to obtain the differences for each participant. […] Chronic kidney disease (CKD) is based on glomerulary filtration rate (GFR), and CKD stage 3 starts at a value below 60. […] Bicarbonate can be harmful if large changes occur in either direction, but clinicians are usually concerned about metabolic acidosis.

healthy men [3] = assay: Phase 1 clinical trial safety evaluation, adverse events by CTCAE v4.03; assay type: in vivo, human; conditions: for Toxicity Grade (CTCAE v4.0) / Relationship To Study Treatment: per event; for Toxicity Grade (CTCAE v4.0) / Relationship To Study Treatment / Event (adverse event term): 2 weeks oral; for Toxicity Grade (CTCAE v4.0) / Adverse Event (Yes/No) / Event (adverse event term): UA 300 mg/day, CURC 1200 mg/day; for Adverse Event (Yes/No) / Event (adverse event term): per subject; for Adverse Event (Yes/No): 2 weeks oral lipid capsules
Source text: We performed a standard 3 × 3 phase 1 design based on the safety evaluation of UA and CURC tested individually and then in combination (Study Schema in Supplemental Fig. 1). We modified the 3 × 3 design to include any toxicities because we selected the maximum dose due to the reported safety of large doses of these compounds. We enrolled subjects for a 2-week study period and used paired samples for individualized comparisons and pooled results for group comparisons.
We recruited healthy men enrolled in the San Antonio Biomarkers of Risk (SABOR) study, a community-based prostate cancer screening cohort. The San Antonio Biomarkers of Risk (SABOR) study cohort was funded by the 10.13039/100000054National Cancer Institute Early Detection Research Network-sponsored Clinical and Epidemiologic Validation Center since its nascent enrollment in 2000 (IRB# HSC20000030H). A separate IRB was approved for the Phase 1 trial (IRB# HSC20190940H). The participants had no prior diagnosis of prostate cancer at the time of enrollment and had varied prostate cancer risk profiles. We used data from the local UT Health San Antonio Data Safety and Monitoring Board (DSMB).
Safety was compared to evaluate the number, frequency, duration, and relationship of toxicity events to CURC and UA, as defined by the Common Terminology Criteria for Adverse Events (CTCAE) v. 4.03. The secondary outcomes included the measured plasma levels of UA, CURC, and selected metabolites. We also investigated the impact on the microbiome in a paired analysis for changes and the overall theme of imputed bacterial function.

[4] = Human microsomal metabolism of UA alone or with CURC; assay type: in vitro ADME; conditions: UA 4 μM, HLM, NADPH, 37 °C
Protocol: The respective stock solutions were further diluted using MeOH to prepare calibration curve standards and working solutions. The diluent was prepared by spiking the IS (C-d6 and BA) in 100% MeOH to obtain a concentration of 100 ng/mL. The solutions were stored at −20 °C before use. […] Aliquots of 30 μL were collected at different time points, and the reaction was terminated by adding 120 μL of the diluent. Finally, the collected samples were vigorously vortexed, centrifuged for 10 min at 4 °C and 50 μL of the clear supernatant was transferred to LC-MS vials for analysis. UHPLC–MS analysis was performed using a Thermo Scientific Vanquish UHPLC system coupled with an Orbitrap IQ-X Tribrid mass spectrometer with an electrospray ionization (ESI) interface. […] The H-ESI interface was operated in negative ion mode with interface ion transfer tube temperature 320 °C, vaporizing temperature 250 °C, sheath gas 45 Arb, auxiliary gas 10 Arb, sweep gas 2 Arb, and detector voltage 3.5 kV. […] Data processing was performed using the Thermo Scientific Freestyle software (1.8. SP2 version).

[5] = CURC alone group, 1200 mg/day oral, day 14
[6] = combination group (CurcUA), day 14
[7] = week 2 minus baseline, n = 6 per group
[8] = adverse event Creatinine increased
[9] = Musculoskeletal domain adverse event
[10] = Nervous system domain adverse event

SMILES | Difference in ALT, median (IQR) (healthy men [2]; [7]) | Difference in AST, median (IQR) (healthy men [2]; [7]) | Difference in Albumin, median (IQR) (healthy men [2]; [7]) | Difference in Alkaline Phosphatase, median (IQR) (healthy men [2]; [7]) | Difference in Bicarbonate, median (IQR) (healthy men [2]; [7]) | Difference in Bilirubin, median (IQR) (healthy men [2]; [7]) | Difference in Calcium, median (IQR) (healthy men [2]; [7]) | Difference in Chloride, median (IQR) (healthy men [2]; [7]) | Difference in Creatinine, median (IQR) (healthy men [2]; [7]) | Difference in Hematocrit, median (IQR) (healthy men [2]; [7]) | Difference in Hemoglobin, median (IQR) (healthy men [2]; [7]) | Difference in Platelets, median (IQR) (healthy men [2]; [7]) | Difference in Sodium, median (IQR) (healthy men [2]; [7]) | Difference in White blood cell (WBC), median (IQR) (healthy men [2]; [7]) | Adverse Event (Yes/No) (healthy men [3]) | other results
COc1cc(/C=C/C(=O)CC(=O)/C=C/c2ccc(O[C@@H]3O[C@H](C(=O)O)[C@@H](O)[C@H](O)[C@H]3O)c(OC)c2)ccc1O [CURC glucuronide, curcumin glucuronide] | – | – | – | – | – | – | – | – | – | – | – | – | – | – | – | CURC glucuronide plasma level, median [1, 5]: 24.0 ng/mL; CURC glucuronide plasma level, median [1, 6]: 25 ng/mL
COc1cc(/C=C/C(=O)CC(=O)/C=C/c2ccc(O)c(OC)c2)ccc1O [Curcumin, curcumin] | −1.0 (−3.25 to 0.0) | 2.0 (−2.0 to 3.3) | 0.05 (−0.05 to 0.2) | −2.0 (−5.5 to 9.3) | −1.5 (−4.3 to 0.0) | −0.1 (−0.3 to 0.0) | 0.2 (−0.15 to 0.32) | −0.5 (−1.3 to 0.8) | 0.07 (−0.07 to 0.16) | 0.25 (−1.45 to 2.35) | 0.20 (−0.30 to 0.55) | 7.0 (−5 to 31.5) | 0.0 (−1.5 to 1.0) | 0.15 (−0.43 to 0.68) | No and Yes | GFR after 2 weeks, individual participant (healthy men [2]; baseline GFR 45 (CURC arm participant), 76 (CurcUA participant)): 46; Creatinine after treatment in subject with event 'Creatinine increased' (Comments) (healthy men [2]; individual subjects, baselines 1.10, 1.0, 1.13): Creatine increased from 1.10 to 1.24; also recorded: Creatine increased from 1.0 to 1.21; Difference in Glomerular Filtration Rate (GFR), median (IQR) (healthy men [2]; [7]): −5.5 (−12.0 to 4.5); Toxicity Grade (CTCAE v4.0) (healthy men [3]; adverse event Bloating): 2; Toxicity Grade (CTCAE v4.0) (healthy men [3]; [8]): 1; Relationship To Study Treatment (healthy men [3]; [8]): Unlikely; Relationship To Study Treatment (healthy men [3]; adverse event Diarrhea): Possible; Event (adverse event term) (healthy men [3]; adverse event Bloating): Bloating; Event (adverse event term) (healthy men [3]; [8]): Creatinine increased; Event (adverse event term) (healthy men [3]; adverse event Diarrhea): Diarrhea; Event (adverse event term) (healthy men [3]; adverse event Flatulence): Flatulence; CURC parent compound plasma level, median [1, 5]: 0.42 ng/mL; Highest plasma level of CURC [1, 5]: 0.52 ng/mL; CURC plasma level, median [1, 6]: 0.0 ng/mL
C[C@H]1[C@H](C)CC[C@]2(C(=O)O)CC[C@]3(C)C(=CC[C@@H]4[C@@]5(C)CC[C@H](O)C(C)(C)[C@@H]5CC[C@]43C)[C@H]12 [Ursolic Acid, ursolic acid] | 1.5 (1.0–12.8) | 2.0 (−1.3 to 3.3) | 0.0 (−0.1 to 0.2) | 2.5 (−2.5 to 5.0) | 1.0 (−1.5 to 3.0) | 0.0 (−0.08 to 0.15) | 0.03 (−0.05 to 0.48) | −1.0 (−2.75 to 1.75) | −0.08 (−0.33 to 0.12) | 1.55 (−0.85 to 2.85) | 0.20 (−0.33 to 0.58) | 9.5 (2.5–27) | 0.5 (−1.5 to 2.25) | 0.20 (−0.23 to 0.85) | No and Yes | Number of low-grade gastrointestinal (GI)-related complaints attributed (healthy men [3]; CTCAE v4.03, n): 3; Relationship To Study Treatment (healthy men [3]): Unlikely; Toxicity Grade (CTCAE v4.0) (healthy men [3]; [9]): 1; Toxicity Grade (CTCAE v4.0) (healthy men [3]; [10]): 2; Event (adverse event term) (healthy men [3]; [9]): Joint pain; Event (adverse event term) (healthy men [3]; [10]): Vasovagal Reaction; also recorded: Pre-syncope; UA remaining at 40 min ([4]; UA-only incubations): 47%; UA remaining at 40 min ([4]; ratio 1:4 (UA: CURC)): 73%; Cmax ([1]; UA alone group, UA 300 mg/day oral): 2.7 ng/mL; Cmax ([1]; combination group (CurcUA), UA 300 mg/day + CURC 1200 mg/day oral): 43.8 ng/mL; Increase of UA plasma levels, combination vs UA alone ([1]; median 2.7 to 43.8 ng/mL): 16 fold

From article PMC11384084 (Journal of Traditional and Complementary Medicine, 2024)
